Patent publication EP0396400A1, “Microbial transformation product” (Merck & Co., Inc., priority 1989, dated 1990)

Test system: mouse T lymphocytes
Test: T-cell proliferation assay (ionomycin plus PMA induced T-cell stimulation, tritiated thymidine uptake)
Format: cell-based, C57B1/6 mice
Conditions: T-lymphocyte, 10 ng/ml, standard
Description: The principle of this assay is to measure the proliferation of mouse T lymphocytes stimulated with the combination of ionomycin plus PMA. A positive sample in this assay will inhibit T-cell proliferation, as indicated by reduced tritiated thymidine uptake.
Cells were pelleted by centrifugation at 1500 rpm for 8 minutes. Contaminating red cells were removed by treating the pellet with ammonium chloride lysing buffer (GIBCO) for 2 minutes at 4°C. Cold medium was added and cells were again centrifuged at 1500 rpm for 8 minutes. T lymphocytes were then isolated by separation of the cell suspension on nylon wool columns as follows: Nylon wool columns were prepared by packing approximately 4 grams of washed and dried nylon wool into 20 ml plastic syringes. The columns were sterilized by autoclaving at 250°F for 30 minutes. […]
The cell suspension was immediately distributed into 96 well flat-bottom microculture plates (Costar) at 200 µl/well. […] The proliferation of T lymphocytes was assessed by measurement of tritiated thymidine incorporation. […] Radioactivity of filter discs corresponding to individual wells was measured by standard liquid scintillation counting methods (Betacounter). Mean counts per minute of replicate wells were calculated and the results expressed as percent inhibition of tritiated thymidine uptake (proliferation) as follows: [formula]

## C=CC[C@@H]1/C=C(\C)C[C@H](C)C[C@H](OC)[C@H]2O[C@@](O)(C(=O)C(=O)N3CCCC[C@H]3C(=O)O[C@H](/C(C)=C/[C@@H]3CC[C@@H](O)[C@H](OC)C3)[C@H](C)[C@@H](O)CC1=O)[C@H](C)C[C@@H]2OC [L-679,934]
  inhibition at 0.01 µg/mL: 99%
